Results reported in ChEMBL document CHEMBL1201862, “PubChem BioAssay data set” (2004).
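Assay format: 96-well plates, 48-hour exposure. At the GI50, growth is halved.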 Calls of active or inactive are those of the source. Cut-off read from the data, not from the text of the source: active = GI50 up to about 1.1 µM and inactive = higher.

What was measured:
Assay in all cases: NCI tumour cell line growth inhibition, 48 h
[1] = test system: CAKI-1
[2] = test system: DU-145
[3] = test system: EKVX
[4] = test system: HCC 2998
[5] = test system: HCT-116
[6] = test system: IGROV-1
[7] = test system: KM12
[8] = test system: LOX IMVI
[9] = test system: MCF7
[10] = test system: MDA-MB-435
[11] = test system: NCI-H23
[12] = test system: PC-3
[13] = test system: SF-295
[14] = test system: SK-MEL-2
[15] = test system: SK-MEL-5
[16] = test system: SNB-19
[17] = test system: SNB-75
[18] = test system: SR
[19] = test system: U-251
[20] = test system: XF498

Compound	GI50 [1]	GI50 [2]	GI50 [3]	GI50 [4]	GI50 [5]	GI50 [6]	GI50 [7]	GI50 [8]	GI50 [9]	GI50 [10]	GI50 [11]	GI50 [12]	GI50 [13]	GI50 [14]	GI50 [15]	GI50 [16]	GI50 [17]	GI50 [18]	GI50 [19]	GI50 [20]
O=C1OC(C2Cc3ccc4c(c3C2=O)CCCC4)c2ccccc21 (stereo not drawn)	69.3 µM (inactive)	74.3 µM (inactive)	44.6 µM (inactive)	30.8 µM (inactive)	40 µM (inactive)	44.3 µM (inactive)	44 µM (inactive)	25.5 µM (inactive)	33.9 µM (inactive)	38.8 µM (inactive)	42.7 µM (inactive)	26.4 µM (inactive)	40.1 µM (inactive)	24.5 µM (inactive)	33.4 µM (inactive)	44.5 µM (inactive)	65.6 µM (inactive)	> 10 µM (inactive)	39.6 µM (inactive)	–
Cc1c(C(=O)CSc2nc3cc([N+](=O)[O-])ccc3[nH]2)c(=O)n(-c2ccccc2)n1C	> 100 µM (inactive)	–	–	36.6 µM (inactive)	> 100 µM (inactive)	> 100 µM (inactive)	> 100 µM (inactive)	> 100 µM (inactive)	–	–	> 100 µM (inactive)	–	> 100 µM (inactive)	> 100 µM (inactive)	> 100 µM (inactive)	> 100 µM (inactive)	> 100 µM (inactive)	> 100 µM (inactive)	> 100 µM (inactive)	> 100 µM (inactive)
Cc1cc2c(=O)c3ccc(Cl)cc3[nH]c2c(C(N)=O)c1C	–	–	> 100 µM (inactive)	> 100 µM (inactive)	> 100 µM (inactive)	> 100 µM (inactive)	> 100 µM (inactive)	> 100 µM (inactive)	–	–	> 100 µM (inactive)	–	> 100 µM (inactive)	> 100 µM (inactive)	> 100 µM (inactive)	> 100 µM (inactive)	35.5 µM (inactive)	–	> 100 µM (inactive)	> 100 µM (inactive)
COC(=O)/C(C#N)=C(\N)C(Cl)(Cl)Cl	5.4 µM (inactive)	–	4.68 µM (inactive)	3.06 µM (inactive)	0.643 µM (active)	–	4.32 µM (inactive)	2.65 µM (inactive)	–	–	4.82 µM (inactive)	–	5.09 µM (inactive)	5.53 µM (inactive)	1.69 µM (inactive)	40.8 µM (inactive)	3.85 µM (inactive)	0.449 µM (active)	16.5 µM (inactive)	1.78 µM (inactive)
